The text below walks through data of paper PMC9369311, “Examination of Intracellular GPCR-Mediated Signaling with High Temporal Resolution” (International Journal of Molecular Sciences, 2022).

This assay has as its target T1, DmOctα1B receptor (Drosophila melanogaster, UniProt Q7JQF1).
T1 construct: expressed in transfected cells
T1 sequence (Q7JQF1 1-645): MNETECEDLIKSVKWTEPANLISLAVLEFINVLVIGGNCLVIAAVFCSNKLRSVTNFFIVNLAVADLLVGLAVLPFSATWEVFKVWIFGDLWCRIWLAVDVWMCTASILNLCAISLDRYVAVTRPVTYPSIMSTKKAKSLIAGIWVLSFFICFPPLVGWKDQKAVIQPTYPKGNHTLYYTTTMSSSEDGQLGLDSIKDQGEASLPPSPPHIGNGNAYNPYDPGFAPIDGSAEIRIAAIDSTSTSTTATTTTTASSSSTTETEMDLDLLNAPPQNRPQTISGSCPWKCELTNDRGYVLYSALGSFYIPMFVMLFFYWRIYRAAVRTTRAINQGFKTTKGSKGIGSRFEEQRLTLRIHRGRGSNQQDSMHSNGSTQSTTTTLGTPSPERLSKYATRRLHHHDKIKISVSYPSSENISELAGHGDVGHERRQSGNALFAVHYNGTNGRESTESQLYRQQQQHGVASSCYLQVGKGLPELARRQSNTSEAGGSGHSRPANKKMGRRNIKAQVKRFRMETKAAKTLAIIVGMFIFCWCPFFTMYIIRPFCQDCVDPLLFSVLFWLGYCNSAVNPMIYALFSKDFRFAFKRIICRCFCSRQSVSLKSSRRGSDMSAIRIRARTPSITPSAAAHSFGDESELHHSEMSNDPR
The assay can be described thus: Ca2+ fluorimetry in plate reader (96 MWP), DmOctα1B-expressing HEK293 cells. The format is cell-based. The protocol: Both the DmOctα1B receptor- and DmOctβ1 receptor-expressing (=flpTM-DmOctβ1) cell lines were initially investigated via Ca^2+ fluorimetric measurements in a plate reader. The cells were seeded in 96 well plates and loaded with Fluo-4, enabling the detection of changes in [Ca^2+]i. The Fluo-4 was excited at 485 nm and the fluorescence emission was recorded at 510 nm. To overcome the cAMP degradation by cell-endogenous phosphodiesterases, the DmOctβ1-expressing cells were treated with 100 µM iso-butylmethylxanthine (IBMX). Prior to the ligand application, the basal fluorescence (F0) was recorded and the concentration–response curves were generated by plotting the changes in fluorescence ((Fmax − F0)/F0 = ΔF/F0) against the ligand concentrations. For a better comparison, the fluorescence intensities were normalized. The maximal change in fluorescence for each of the stimulation series was defined as 100%. The EC50 values were determined from a nonlinear regression plot (four parameters) using GraphPad Prism v5.04 for analysis and display.
In order to omit loading with the fluorescent dye, both the DmOctα1B-expressing cells and flpTM-DmOctβ1 cells were stably transfected with a construct encoding the cytosolic version of GCaMP3.0. As in the previous experiment with Fluo-4, the GCaMP3.0-expressing cell lines were seeded in 96 well plates and incubated with the same series of increasing octopamine concentrations. The GCaMP3.0 was excited at 485 nm and the fluorescence emission was recorded at 510 nm. The basal fluorescence (F0) was recorded before adding the octopamine concentration series. The fluorescence intensities were normalized to the maximal change in fluorescence, defined as 100%. The concentration–response curves were generated with GraphPad Prism v5.04. In Figure 1, the concentration–response curves obtained with Fluo-4 and GCaMP3.0 are depicted for both of the receptors. […]

“And” between values parts separate entries of the source, which are not always exact repeats. Equal entries are not always repeated. Where two headings read alike, the source gives them in different places.

Regarding `NCC(O)c1ccc(O)cc1` (stereo not drawn) [octopamine], the EC50 by setting is: (DmOctα1B cells loaded with Fluo-4, 96 MWP plate reader, read-out: EC50) ~12 nM and 12 nM; (DmOctα1B-GCaMP3.0 cells, 96 MWP plate reader, read-out: EC50) 14 nM; (DmOctα1B-GCaMP3.0 cells, 96 MWP, given as logEC50 (negative), read-out: logEC50 ± SD (converted)) 15.8 nM.
